In data set [1] the target is T1, Acetylcholinesterase (Homo sapiens, UniProt P22303). The data set is described as follows: Inhibition of AChE (unknown origin) by Ellman's method. For orientation: In Ellman's method for cholinesterases, released thiocholine reacts with DTNB.
The nature of data set [2]: Antioxidant activity assessed as DPPH radical scavenging activity. In kind it is functional.
For data set [3], the target named is Cholinesterase (Homo sapiens, UniProt P06276). The data set is described as follows: Inhibition of BuChE (unknown origin).
Sequence of Cholinesterase (P06276 whole entry): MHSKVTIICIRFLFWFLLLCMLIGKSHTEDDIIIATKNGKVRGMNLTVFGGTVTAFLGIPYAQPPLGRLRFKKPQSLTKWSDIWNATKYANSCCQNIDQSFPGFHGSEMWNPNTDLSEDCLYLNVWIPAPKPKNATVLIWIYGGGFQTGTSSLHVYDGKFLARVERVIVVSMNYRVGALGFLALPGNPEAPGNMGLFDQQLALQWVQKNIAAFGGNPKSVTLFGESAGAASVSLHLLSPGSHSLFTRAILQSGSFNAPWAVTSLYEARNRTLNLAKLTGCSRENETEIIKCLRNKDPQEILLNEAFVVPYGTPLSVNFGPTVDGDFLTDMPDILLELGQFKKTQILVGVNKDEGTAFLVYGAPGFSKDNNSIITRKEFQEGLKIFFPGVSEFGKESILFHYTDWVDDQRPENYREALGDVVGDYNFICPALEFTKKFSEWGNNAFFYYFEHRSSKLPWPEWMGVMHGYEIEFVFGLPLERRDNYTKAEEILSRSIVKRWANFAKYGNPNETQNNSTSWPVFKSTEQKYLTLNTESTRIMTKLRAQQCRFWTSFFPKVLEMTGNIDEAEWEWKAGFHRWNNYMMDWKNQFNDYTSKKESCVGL
The nature of data set [4]: Chronic toxicity in male Wistar rat assessed as negative side effects at 10 mg/kg, po measured after 1 month. The format is organism-based. Particulars: in vivo, 730 h, time 1 months.
In data set [5] the target is T1, Acetylcholinesterase. The data set is described as follows: Mixed inhibition of AChE (unknown origin).
Data set [6] can be described thus: Toxicity in male Wistar rat assessed as ALP level at 10 mg/kg, po (reference value: 137.18 +/- 7.04 U/L). The format is organism-based. The note with it: in vivo.
A short description of data set [7]: Toxicity in male Wistar rat assessed as MCV level at 10 mg/kg, po (reference value: 59.92 +/- 2.2 fL). In kind it is organism-based. The note with it: in vivo.
The nature of data set [8]: Toxicity in male Wistar rat assessed as haematocrit level at 10 mg/kg, po (reference value: 39.01 +/- 1.12 %). The format is organism-based. The note with it: in vivo.
Data set [9] is described as follows: Toxicity in male Wistar rat assessed as MCHC level at 10 mg/kg, po (reference value: 32.52 +/- 2.48 g/dL). The format is organism-based. Particulars: in vivo.
Data set [10] can be described thus: Toxicity in male Wistar rat assessed as creatinine level at 10 mg/kg, po (reference value: 0.68 +/- 0.1 mg/dL). The format is organism-based. Particulars: in vivo.
A short description of data set [11]: Toxicity in male Wistar rat assessed as ALT level at 10 mg/kg, po (reference value: 42.18 +/- 3.35 U/L). The format is organism-based. Particulars: in vivo.
Data set [12] in a line: Toxicity in male Wistar rat assessed as urea level at 10 mg/kg, po (reference value: 29.89 +/- 1.84 mg/dL). The note with it: in vivo. In kind it is organism-based.
A short description of data set [13]: Toxicity in male Wistar rat assessed as decrease in proliferation of Kupffer cells at 10 mg/kg, po by H and E staining based analysis. The format is organism-based. Particulars: in vivo.
The nature of data set [14]: Toxicity in male Wistar rat assessed as MCH level at 10 mg/kg, po (reference value: 18.50 +/- 1.52 pg). The format is organism-based. Particulars: in vivo.
Data set [15] can be described thus: Toxicity in male Wistar rat assessed as histopathological change in kidney at 10 mg/kg, po by H and E staining based analysis. The format is organism-based. The note with it: in vivo.
Data set [16] in a line: Toxicity in male Wistar rat assessed as total bilirubin level at 10 mg/kg, po (reference value: 0.68 +/- 0.11 mg/dL). The note with it: in vivo. In kind it is organism-based.
Data set [17] in a line: Toxicity in male Wistar rat assessed as AST level at 10 mg/kg, po (reference value: 78.16 +/- 9.37 U/L). Particulars: in vivo. In kind it is organism-based.
Data set [18] is described as follows: Toxicity in male Wistar rat assessed as MPV level at 10 mg/kg, po (reference value: 7.01 +/- 0.28 fL). In kind it is organism-based. Particulars: in vivo.
A short description of data set [19]: Toxicity in male Wistar rat assessed as WBC level at 10 mg/kg, po (reference value: 4.60 +/- 0.61 10^3/cmm). In kind it is organism-based. Particulars: in vivo.
The nature of data set [20]: Chronic toxicity in male Wistar rat assessed as drug tolerance at 10 mg/kg, po measured after 1 month. In kind it is organism-based. Particulars: in vivo, 730 h, time 1 months.
A short description of data set [21]: Toxicity in male Wistar rat assessed as histological change in renal parenchyma at 10 mg/kg, po by H and E staining based analysis. In kind it is organism-based. The note with it: in vivo.
The nature of data set [22]: Toxicity in male Wistar rat assessed as RDW-CV level at 10 mg/kg, po (reference value: 16.93 +/- 1.69 %). The note with it: in vivo. In kind it is organism-based.
A short description of data set [23]: Toxicity in male Wistar rat assessed as RBC level measured per million cells at 10 mg/kg, po (reference value: 6.96 +/- 0.45 /cm). The note with it: in vivo. In kind it is organism-based.
Data set [24] in a line: Toxicity in male Wistar rat assessed as albumin level at 10 mg/kg, po (reference value: […]). The note with it: in vivo. The format is organism-based.
Data set [25] is described as follows: Toxicity in male Wistar rat assessed as HB level at 10 mg/kg, po (reference value: 13.11 +/- 0.48 g/dL). The format is organism-based. Particulars: in vivo.

Experimental findings from ChEMBL document CHEMBL6074692, “Design, synthesis, and evaluation of novel benzofuran and pyrazole-based derivatives as dual AChE/BuChE inhibitors with antioxidant properties for Alzheimer's disease management” (Eur J Med Chem, 2025) are described below.

pIC50: −log10 of the molar value. In brackets after ≈: the same amount, converted by molar mass. Activity calls are given as the source filed them. The rule behind the calls is not given here.

Broadly, the pIC50 is −log10 of the IC50, conventionally taken in molar units. High values mean a small IC50, low ones a large IC50. In general, IC50 refers to the concentration at which inhibition is half-maximal.

T1 sequence (P22303 whole entry): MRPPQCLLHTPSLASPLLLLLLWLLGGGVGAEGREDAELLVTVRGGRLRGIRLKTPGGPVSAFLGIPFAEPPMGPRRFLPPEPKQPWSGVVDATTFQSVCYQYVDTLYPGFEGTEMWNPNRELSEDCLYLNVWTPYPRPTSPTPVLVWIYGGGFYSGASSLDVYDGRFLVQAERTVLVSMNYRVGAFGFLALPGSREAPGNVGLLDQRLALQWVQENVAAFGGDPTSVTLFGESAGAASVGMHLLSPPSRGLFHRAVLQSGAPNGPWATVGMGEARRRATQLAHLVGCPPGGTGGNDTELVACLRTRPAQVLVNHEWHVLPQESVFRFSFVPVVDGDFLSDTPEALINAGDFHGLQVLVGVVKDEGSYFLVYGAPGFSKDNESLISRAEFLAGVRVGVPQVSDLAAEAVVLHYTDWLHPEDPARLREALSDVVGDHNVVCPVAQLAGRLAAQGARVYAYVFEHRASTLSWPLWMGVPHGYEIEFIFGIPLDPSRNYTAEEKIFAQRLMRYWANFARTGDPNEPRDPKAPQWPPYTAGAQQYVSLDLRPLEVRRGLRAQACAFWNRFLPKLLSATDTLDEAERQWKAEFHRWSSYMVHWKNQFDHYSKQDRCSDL

As for `O=C(COc1ccc2occ(C(=O)c3ccccc3)c2c1)Nc1ccccc1`, the pIC50 in data set [1] is 5.68; in [3], 5.47. Also, in [2], the IC50 was 587 µg/mL (≈ 1580 µM).

Turning to `Cc1ccc(C(=O)c2coc3ccc(OCC(=O)Nc4ccccc4)cc23)cc1`, the pIC50 in data set [1] was 5.49; in [3] it was 4.73. The IC50 in [2] amounted to 363 µg/mL (≈ 942 µM).

Turning to `Cc1ccc(NC(=O)COc2ccc(O)c(-c3cn[nH]c3-c3ccc(C)cc3)c2)cc1`, the pIC50 in [1] was 5.32; in [3], 5.06. In addition, the 50% inhibitory concentration (IC50) in data set [2] is 4.26 µg/mL (≈ 10.3 µM).

On to `O=C(COc1ccc2occ(C(=O)c3ccccc3)c2c1)Nc1ccc(Cl)cc1`, for which the pIC50 in [1] was 4.39. Moreover, the IC50 in [2] worked out at 132 µg/mL (≈ 325 µM).

`O=C(COc1ccc(O)c(-c2cn[nH]c2-c2ccccc2)c1)Nc1ccccc1`: the pIC50 in data set [1] was 4.30. For the same compound, in data set [2], the IC50 was 3.07 µg/mL (≈ 7.97 µM).

Compound `O=C(COc1ccc2occ(C(=O)c3ccc(Cl)cc3)c2c1)Nc1ccc(Cl)cc1` gave a pIC50 in [1] of 4.74. Further, the IC50 in data set [2] is 630 µg/mL (≈ 1430 µM).

For the compound `O=C(COc1ccc(O)c(-c2cn[nH]c2-c2ccccc2)c1)Nc1ccc(Cl)cc1`, the pIC50 in [1] is 4.39. Moreover, in data set [2], the IC50 turned out to be 2.59 µg/mL (≈ 6.17 µM).

With `Cc1ccc(NC(=O)COc2ccc3occ(C(=O)c4ccc(C)cc4)c3c2)cc1`, the pIC50 in data set [1] is 4.23. The 50% inhibitory concentration (IC50) in data set [2] worked out at 240 µg/mL (≈ 601 µM).

Turning to `Cc1ccc(-c2[nH]ncc2-c2cc(OCC(=O)Nc3ccc(Cl)cc3)ccc2O)cc1`, the pIC50 is 5.54 in [1] and 5.37 in data set [3]. Further, the Activity entry is “Non-toxic” in [4]; 137.33 U/L in data set [6]; 60.31 fL in [7]; 38.32% in data set [8]; 32.59 g/dL in data set [9]; 0.69 mg/dL in data set [10]. For the same compound, the Activity in data set [11] was 42.97 U/L; in [12], 30.25 mg/dL; in [13] it was “Toxic”; in data set [14] it was 19.51 pg; in data set [15] it was “Non-toxic”; in data set [16] it was 0.63 mg/dL. Also, the Activity was 76.11 U/L in data set [17]; 6.91 fL in [18]; 4.86 10^3/mm3 in data set [19]; “Non-toxic” in data set [20]; “Non-toxic” in [21]; 16.64% in data set [22]. For the same compound, the Activity in data set [23] is 7.14 10^6/mm3; in data set [24] it was 3.31 g/dL; in data set [25], 13.28 g/dL. The inhibition result in [5] is “Active”. Besides, the half-maximal inhibitory concentration (IC50) in data set [2] was 3.15 µg/mL (≈ 7.26 µM).

Take `O=C(COc1ccc2occ(C(=O)c3ccc(Cl)cc3)c2c1)Nc1ccccc1`: the pIC50 was 6.02 in data set [1] and 5.90 in data set [3]. Moreover, the 50% inhibitory concentration (IC50) in data set [2] worked out at 153 µg/mL (≈ 377 µM).

Consider `Cc1ccc(NC(=O)COc2ccc(O)c(-c3cn[nH]c3-c3ccc(Cl)cc3)c2)cc1`, for which, in [1], the negative logarithm of the IC50 (pIC50) is 4.36. Further, in data set [2], the IC50 stood at 4.94 µg/mL (≈ 11.4 µM).

`O=C(COc1ccc(O)c(-c2cn[nH]c2-c2ccc(Cl)cc2)c1)Nc1ccc(Cl)cc1` gave a pIC50 in data set [1] of 3.92. For the same compound, the IC50 in [2] worked out at 3.18 µg/mL (≈ 7 µM).

Take `Cc1ccc(NC(=O)COc2ccc3occ(C(=O)c4ccc(Cl)cc4)c3c2)cc1`: the pIC50 in [1] was 4.92. The IC50 in data set [2] stood at 375 µg/mL (≈ 893 µM).

`Cc1ccc(-c2[nH]ncc2-c2cc(OCC(=O)Nc3ccccc3)ccc2O)cc1` gave a pIC50 in [1] of 4.39. Also, in data set [2], the IC50 amounted to 3.24 µg/mL (≈ 8.11 µM).

`O=C(COc1ccc(O)c(-c2cn[nH]c2-c2ccc(Cl)cc2)c1)Nc1ccccc1` had a negative logarithm of the IC50 (pIC50) in [1] of 4.86. Besides, in data set [2], the concentration for half-maximal inhibition (IC50) is 5.87 µg/mL (≈ 14 µM).

As to `O=C1O[C@H]([C@@H](O)CO)C(O)=C1O` [ASCORBIC ACID], the concentration for half-maximal inhibition (IC50) in [2] worked out at 2.85 µg/mL (≈ 16.2 µM).

Turning to `Cc1ccc(NC(=O)COc2ccc3occ(C(=O)c4ccccc4)c3c2)cc1`, the pIC50 in data set [1] is 4.67. Moreover, in [2], the IC50 worked out at 262 µg/mL (≈ 680 µM).

Consider `Cc1ccc(C(=O)c2coc3ccc(OCC(=O)Nc4ccc(Cl)cc4)cc23)cc1`, for which the pIC50 in data set [1] is 4.28. Further, in data set [2], the IC50 was found to be 732 µg/mL (≈ 1740 µM).

`Cc1ccc(NC(=O)COc2ccc(O)c(-c3cn[nH]c3-c3ccccc3)c2)cc1`: the pIC50 in [1] was 4.53. In addition, the IC50 in data set [2] was found to be 9.93 µg/mL (≈ 24.9 µM).
